Values quoted from earlier work as cited in paper PMC4512239 (Clinical cancer research : an official journal of the …, 2015).

Tested on: m-TORC1/2
Settings: ATP competitive m-TORC1/2 inhibitor; cited from earlier work

For `CNC(=O)c1cccc(-c2ccc3c(N4CCOC[C@@H]4C)nc(N4CCOC[C@@H]4C)nc3n2)c1` [AZD2014], the IC50 is listed as 2.81 nM.
